We go through 14 compounds from patent publication US9713615B2, “Tetrahydroisoquinolin-2-yl-(quinazolin-4-yl)methanone compounds” (Rexahn Pharmaceuticals, Inc., priority 2013, dated 2017).

The structures appear in SMILES notation.

Experiment [1] deals with OVCAR-3 (ovary). Nature of the experiment: SRB growth inhibition assay, OVCAR-3. To be noted: Homo sapiens, 96 hours incubation, read-out: Inhibition of cell growth (IC50, μM) Ovcar3. The format is cell-based. From the text:
(§1) Cancer cells used in this study to determine the effect of tetrahydroisoquinolin-2-yl-(quinazolin-4-yl)methanone compounds were obtained from the following sources: Human OVCAR-3 (ovary), SK-MEL-28 (melanoma), MDA-MB-231 (breast), HeLa (cervix), PC3 (prostate), HepG2 (liver), A549 (lung), Caki-1 (kidney), HCT116 (colon) and PANC-1 (pancreas) from the American Type Culture Collection (ATCC) (Manassas, Va.); U251 (brain) from Riken (Japan); MKN-45 (stomach) from DSMZ (Germany). All cell lines except MDA-MB-231, HCT116, Caki-1 and PANC-1 were grown in RPMI1640 medium (Invitrogen, Carlsbad, Calif.) supplemented with 10% fetal bovine serum (“FBS”), 1 mM sodium pyruvate, 10 mM HEPES and 100 U/ml penicillin and 100 μg/ml streptomycin (“P/S”). MDA-MB-231, HCT116, Caki-1 and PANC-1 cells were maintained in Dulbecco's modified Eagle's medium (“DMEM”, Invitrogen) supplemented with 10% FBS, P/S, 10 mM HEPES and 2 mM L-glutamine. All cells were incubated at 37° C. under humidified 5% CO2.
(§2) The growth inhibition of the tetrahydroisoquinolin-2-yl-(quinazolin-4-yl)methanone compounds against a variety of human tumor cells was evaluated to study the relative importance of particular substituent groups on the compounds. The tetrahydroisoquinolin-2-yl-(quinazolin-4-yl)methanone compounds, prepared as described above, were tested with DMSO as a control.
(§3) The growth inhibition assay of representative tetrahydroisoquinolin-2-yl-(quinazolin-4-yl)methanone derivatives against human tumor cell lines was performed using the Sulforhodamine B (“SRB”) method (Skehan et al., J. National Cancer Institute, 82: 1107-1112 (1990)). Briefly, exponentially growing tumor cells were seeded into a 96-well plate at a density of 2-3×10^3 cells/well and treated with tetrahydroisoquinolin-2-yl-(quinazolin-4-yl)methanone compounds the next day. Triplicate wells were used for each treatment. The cells were incubated with the various compounds for 96 hours at 37° C. in a humidified 5% CO2 atmosphere. After 96-hour incubation, cells were fixed with 10% trichloroacetic acid (“TCA”), incubated for 1 hour at 4° C., and washed 3 times with tap water. Subsequently, cells were stained with 0.4% sulforhodamine B in 1% acetic acid for 30 minutes, washed 4 times with 1% acetic acid, and air-dried again After 5 minutes agitation in 10 mM Tris solution, the absorbance of each well was measured at 530 nm using Benchmark Plus Microplate reader (Bio-Rad Laboratories, Hercules, Calif.).
(§4) To translate the OD530 values into the number of live cells in each well, the OD530 values were compared to those on standard OD530-versus-cell number curves generated for each cell line. The percent survival was calculated using the formula: % Survival=live cell number [test]/live cell number [control]×100
(§5) The IC50 values were calculated by non-linear regression analysis.

Experiment [2] deals with PANC-1 (pancreas). Nature of the experiment: SRB growth inhibition assay, PANC-1. The format is cell-based, Human. The conditions noted are these: Homo sapiens, PANC-1, 96 hours incubation, read-out: Inhibition of cell growth (IC50, μM) Panc-1.
Description: as §1, §2, §3, §4, §5
(§6) The compounds were screened against at […] including PANC-1, MDA-MB-231, HCT116 and Caki-1, at approximately 1 μM concentration. The inhibition of cell growth (IC50, μM) of some tetrahydroisoquinolin-2-yl-(quinazolin-4-yl)methanone compounds are shown in Table 2.

In experiment [3] the test system is MDA-MB-231 (breast). As to the kind of experiment: SRB growth inhibition assay, MDA-MB-231. Type of experiment: cell-based, Human. The conditions noted are these: Homo sapiens, MDA-MB-231, 96 hours incubation, read-out: Inhibition of cell growth (IC50, μM) MDA-MB-231.
Description: as §1, §2, §3, §4, §5, §6

For experiment [4], the system named is MKN-45 (stomach). As to the kind of experiment: SRB growth inhibition assay, MKN-45. Type of experiment: cell-based. To be noted: Homo sapiens, 96 hours incubation, read-out: Inhibition of cell growth (IC50, μM) MKN-45.
Description: as §1, §2, §3, §4, §5

For experiment [5], the system named is U251 (brain). As to the kind of experiment: SRB growth inhibition assay, U251. Type of experiment: cell-based. The conditions noted are these: Homo sapiens, U-251, 96 hours incubation, read-out: Inhibition of cell growth (IC50, μM) U251.
Description: as §1, §2, §3, §4, §5

The subject of experiment [6] is HepG2 (liver). Nature of the experiment: SRB growth inhibition assay, HepG2. The format is cell-based. To be noted: Homo sapiens, 96 hours incubation, read-out: Inhibition of cell growth (IC50, μM) HepG2.
Description: as §1, §2, §3, §4, §5

Experiment [7] deals with HeLa (cervix). As to the kind of experiment: SRB growth inhibition assay, HeLa. To be noted: Homo sapiens, 96 hours incubation, read-out: Inhibition of cell growth (IC50, μM) HeLa. Type of experiment: cell-based.
Description: as §1, §2, §3, §4, §5

In experiment [8] the test system is HCT116 (colon). As to the kind of experiment: SRB growth inhibition assay, HCT116. Type of experiment: cell-based, Human. To be noted: Homo sapiens, HCT-116, 96 hours incubation, read-out: Inhibition of cell growth (IC50, μM) HCT116.
Description: as §1, §2, §3, §4, §5, §6

Experiment [9] concerns Caki-1 (kidney). As to the kind of experiment: SRB growth inhibition assay, Caki-1. The format is cell-based, Human. To be noted: Homo sapiens, CAKI-1, 96 hours incubation, read-out: Inhibition of cell growth (IC50, μM) Caki-1.
Description: as §1, §2, §3, §4, §5, §6

The test system of experiment [10] is SK-MEL-28 (melanoma). As to the kind of experiment: SRB growth inhibition assay, SK-MEL-28. The conditions noted are these: Homo sapiens, 96 hours incubation, read-out: Inhibition of cell growth (IC50, μM) SK-MEL-28. The format is cell-based.
Description: as §1, §2, §3, §4, §5

In experiment [11] the test system is A549 (lung). Nature of the experiment: SRB growth inhibition assay, A549. Type of experiment: cell-based. The conditions noted are these: Homo sapiens, 96 hours incubation, read-out: Inhibition of cell growth (IC50, μM) A549.
Description: as §1, §2, §3, §4, §5

The test system of experiment [12] is PC3 (prostate). Nature of the experiment: SRB growth inhibition assay, PC3. The format is cell-based. The conditions noted are these: Homo sapiens, 96 hours incubation, read-out: Inhibition of cell growth (IC50, μM) PC-3.
Description: as §1, §2, §3, §4, §5

By IC50 is commonly meant the concentration needed to halve the response being measured. Regarding `COc1ccc2c(c1)CCN(C(=O)c1nc(-c3ccc(F)cc3)nc3ccccc13)C2` [Compound 7, 2-[[2-(4-fluorophenyl)quinazolin-4-yl]carbonyl]-6-methoxy-1,2,3,4-tetrahydroisoquinoline], the IC50 in experiment [1] is 0.16 µM; in experiment [2] it was 0.53 µM; in [3], 0.9 µM; in experiment [4], 0.19 µM; in experiment [5] it was 0.64 µM; in experiment [6], 0.72 µM. Further, the IC50 in experiment [7] stood at 0.24 µM; in experiment [8], 1.1 µM; in experiment [9], 0.61 µM; in [10], 0.36 µM.
For the compound `COc1ccc2c(c1O)CCN(C(=O)c1nc(-c3ccccc3)nc3ccccc13)C2` [Compound 17, 2-[[2-phenylquinazolin-4-yl]carbonyl]-5-hydroxy-6-methoxy-1,2,3,4-tetrahydroisoquinoline], the IC50 was 0.074 µM in experiment [1]; 0.062 µM in [2]; 0.066 µM in [3]; 0.063 µM in experiment [4]; 0.067 µM in experiment [5]; 0.15 µM in experiment [11]. The IC50 in experiment [6] came to 0.14 µM; in [7], 0.074 µM; in experiment [8], 0.081 µM; in experiment [9], 0.057 µM; in experiment [12] it was 0.076 µM; in experiment [10], 0.069 µM.
For `COc1ccc2c(c1O)CCN(C(=O)c1nc(-c3cccc(C(F)(F)F)c3)nc3ccccc13)C2` [Compound 52, 2-[[2-(3-(trifluoromethyl)phenyl)quinazolin-4-yl]carbonyl]-5-hydroxy-6-methoxy-1,2,3,4-tetrahydroisoquinoline], the IC50 in experiment [2] is 2.51 µM; in [3], 1.62 µM; in experiment [8] it was 2.67 µM; in [9] it was 1.91 µM.
`COc1ccc2c(c1O)CCN(C(=O)c1nc(-c3ccc(F)cc3F)nc3ccccc13)C2` [Compound 57, 2-[[2-(2,4-difluorophenyl)quinazolin-4-yl]carbonyl]-5-hydroxy-6-methoxy-1,2,3,4-tetrahydroisoquinoline]: the IC50 in experiment [1] turned out to be 0.23 µM; in experiment [2], 0.19 µM; in [3], 0.17 µM; in [5] it was 0.17 µM; in experiment [6], 0.31 µM; in [8], 0.22 µM. Besides, the half-inhibitory concentration (IC50) in experiment [9] stood at 0.21 µM; in [12] it was 0.21 µM; in experiment [10], 0.2 µM.
Consider `Cc1ccc2c(c1O)CCN(C(=O)c1nc(-c3ccc(F)cc3F)nc3ccccc13)C2` [Compound 61, 2-[[2-(2,4-difluorophenyl)quinazolin-4-yl]carbonyl]-5-hydroxy-6-methyl-1,2,3,4-tetrahydroisoquinoline], for which the IC50 worked out at 2.31 µM in experiment [2], 1.84 µM in experiment [3], 2.76 µM in [8] and 2.47 µM in [9].
For `COc1ccc2c(c1O)CCN(C(=O)c1nc(-c3ccc(NC(C)=O)cc3)nc3ccccc13)C2` [Compound 62, 2-[[2-(4-acetamidophenyl)quinazolin-4-yl]carbonyl]-5-hydroxy-6-methoxy-1,2,3,4-tetrahydroisoquinoline] the same measures were 0.21 µM, 0.2 µM, 0.34 µM and 0.2 µM.
For `CC(=O)Nc1ccc(-c2nc(C(=O)N3CCc4c(ccc(C)c4O)C3)c3ccccc3n2)cc1` [Compound 64, 2-[[2-(4-acetamidophenyl)quinazolin-4-yl]carbonyl]-5-hydroxy-6-methyl-1,2,3,4-tetrahydroisoquinoline] the same measures were 0.68 µM, 0.52 µM, 0.89 µM and 0.63 µM.
The matching figures for `COc1ccc2c(c1OC)CCN(C(=O)c1nc(-c3ccncn3)nc3ccccc13)C2` [Compound 72, 2-[[2-(4-pyrimidinyl)quinazolin-4-yl]carbonyl]-5,6-dimethoxy-1,2,3,4-tetrahydroisoquinoline]: 0.49 µM, 0.46 µM, 0.55 µM and 0.39 µM.
For the compound `Cc1ccc2c(c1O)CCN(C(=O)c1nc(-c3ccncn3)nc3ccccc13)C2` [Compound 73, 2-[[2-(4-pyrimidinyl)quinazolin-4-yl]carbonyl]-5-hydroxy-6-methyl-1,2,3,4-tetrahydroisoquinoline], the IC50 in experiment [2] came out at 0.2 µM; in [3], 0.21 µM; in [8] it was 0.26 µM; in experiment [9] it was 0.19 µM.
For `COc1ccc2c(c1O)CCN(C(=O)c1nc(-c3cscn3)nc3ccccc13)C2` [Compound 79, 2-[[2-(4-thiazolyl)quinazolin-4-yl]carbonyl]-5-hydroxy-6-methoxy-1,2,3,4-tetrahydroisoquinoline] the same measures were 0.17 µM, 0.17 µM, 0.2 µM and 0.16 µM.
For `COc1ccc2c(c1OC)CCN(C(=O)c1nc(-c3cscn3)nc3ccccc13)C2` [Compound 81, 2-[[2-(4-thiazolyl)quinazolin-4-yl]carbonyl]-5,6-dimethoxy-1,2,3,4-tetrahydroisoquinoline] the same measures were 1.43 µM, 1 µM, 1.26 µM and 1.21 µM.
For `Cc1ccc2c(c1O)CCN(C(=O)c1nc(-c3cscn3)nc3ccccc13)C2` [Compound 83, 2-[[2-(4-thiazolyl)quinazolin-4-yl]carbonyl]-5-hydroxy-6-methyl-1,2,3,4-tetrahydroisoquinoline] the same measures were 0.23 µM, 0.21 µM, 0.29 µM and 0.25 µM.
Turning to `Cc1ccc2c(c1O)CCN(C(=O)c1nc(-c3cccnc3)nc3ccccc13)C2` [Compound 88, 2-[[2-(3-pyridinyl)quinazolin-4-yl]carbonyl]-5-hydroxy-6-methyl-1,2,3,4-tetrahydroisoquinoline], the IC50 was 0.93 µM in [2], 0.67 µM in [3], 1.12 µM in experiment [8] and 0.97 µM in experiment [9].
As for `COc1ccc2c(c1O)CCN(C(=O)c1nc(-c3ccc(F)cc3)nc3ccc(F)cc13)C2` [Compound 97, 2-[[6-fluoro-2-(4-fluorophenyl)quinazolin-4-yl]carbonyl]-5-hydroxy-6-methoxy-1,2,3,4-tetrahydroisoquinoline], the IC50 was 0.073 µM in experiment [1]; 0.13 µM in experiment [2]; 0.16 µM in experiment [3]; 0.087 µM in [4]; 0.13 µM in [5]; 0.18 µM in [6]. The IC50 came to 0.16 µM in [7], 0.17 µM in experiment [8], 0.11 µM in experiment [9] and 0.11 µM in [10].
